Laboratory results reported in US20240166664A1, “TRIHETEROCYCLIC COMPOUND, PREPARATION METHOD THEREFOR, AND APPLICATION THEREOF” (SHANGHAI APEIRON THERAPEUTICS COMPANY LIMITED, priority 2021, published 2024).

Tests used:
NCI-H1373 cells = experiment: Cell proliferation inhibition assay (CTG method); assay type: cell-based, human; details: Homo sapiens, NCI-H1373, 144 h, NCI-H1373 cells, 6 days incubation, CTG method; read-out: IC50 (nM) for NCI-H1373 cell viability
PARP7 = target: T1, PARP7 (Homo sapiens, UniProt Q7Z3E1); experiment: Test of inhibitory activity against PARP7 enzyme (PARP7 FLAG-tag, Probe A, time-resolved fluorescence); assay type: biochemical; details: PARP7 12 nM, Probe A 2 nM, 1 hr room temperature
T1 construct: purchased BPS 80527
T1 sequence (Q7Z3E1 1-657): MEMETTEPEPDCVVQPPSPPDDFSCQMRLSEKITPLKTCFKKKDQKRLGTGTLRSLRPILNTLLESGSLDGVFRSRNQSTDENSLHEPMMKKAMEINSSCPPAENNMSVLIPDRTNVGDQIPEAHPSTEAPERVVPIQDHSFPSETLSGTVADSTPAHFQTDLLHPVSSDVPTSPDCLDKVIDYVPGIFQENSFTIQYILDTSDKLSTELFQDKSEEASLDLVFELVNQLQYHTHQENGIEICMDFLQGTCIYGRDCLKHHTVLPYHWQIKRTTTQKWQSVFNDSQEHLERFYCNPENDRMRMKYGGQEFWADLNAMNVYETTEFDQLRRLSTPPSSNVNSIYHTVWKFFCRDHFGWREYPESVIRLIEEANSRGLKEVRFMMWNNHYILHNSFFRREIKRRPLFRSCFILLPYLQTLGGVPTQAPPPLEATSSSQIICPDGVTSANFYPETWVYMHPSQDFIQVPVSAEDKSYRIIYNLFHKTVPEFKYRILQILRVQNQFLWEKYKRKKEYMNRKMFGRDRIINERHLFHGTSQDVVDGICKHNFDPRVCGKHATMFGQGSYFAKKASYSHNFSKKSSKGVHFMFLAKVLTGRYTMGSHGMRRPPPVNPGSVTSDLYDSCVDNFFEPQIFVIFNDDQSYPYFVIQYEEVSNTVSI

tumor = details: preclinical experimental data; cited from earlier work

Row | SMILES | IC50 (NCI-H1373 cells) | IC50 (PARP7) | anti-tumor growth effect (tumor) | tumor-specific adaptive immune memory (tumor)
1 | C[C@@H](COCCC(=O)N1CCN2c3ncc(C(F)(F)F)cc3C(F)(F)C[C@H]2C1)Nc1cn[nH]c(=O)c1C(F)(F)F (single isomer, unassigned) [Compound 63] | 500 to 5000 nM | < 10 nM |  | 
2 | C[C@@H](COCCC(=O)N1CCN2c3ncc(C(F)(F)F)cc3C(O)CC2C1)Nc1cn[nH]c(=O)c1C(F)(F)F (stereo partly drawn) [Compound 38] | 100 to 500 nM | < 10 nM |  | 
3 | C[C@@H](COC[C@H](O)C(=O)N1CCN2c3ncc(C(F)(F)F)cc3C=C[C@@H]2C1)Nc1cn[nH]c(=O)c1C(F)(F)F [Compound 71] | < 100 nM | < 10 nM |  | 
4 | C[C@@H](COCCC(=O)N1CCN2c3ncc(C(F)(F)F)nc3N(C)C(=O)[C@@H]2C1)Nc1cn[nH]c(=O)c1C(F)(F)F [Compound 58, (S)-5-methyl-8-(3-((S)-2-((6-oxo-5-(trifluoromethyl)-1,6-dihydropyridazin-4-yl)amino)propoxy)propionyl)-3-(trifluoromethyl)-7,8,9, 10-tetrahydro-5H-bipyrazino[1,2-a:2′, 3′-e]pyrazin-6(6aH)-one] | < 100 nM | < 10 nM |  | 
5 | C[C@@H](COCCC(=O)N1CCN2C(=O)c3ncc(C(F)(F)F)cc3OC[C@@H]2C1)Nc1cn[nH]c(=O)c1C(F)(F)F [Compound 17, (S)-8-(3-((S)-2-((6-oxo-5-(trifluoromethyl)-1,6-dihydropyridazin-4-yl)amino)propoxy)propionyl)-3-(trifluoromethyl)-6,6a, 7,8,9,10-hexahydro-12H-pyrazino[2,1-c]pyrido[2,3-f][1,4]oxazepin-12-one] | > 5000 nM | 10 to 100 nM |  | 
6 | C[C@@H](COC[C@H](F)C(=O)N1CCN2c3ncc(C(F)(F)F)cc3N(C)C(=O)[C@@H]2C1)Nc1cn[nH]c(=O)c1C(F)(F)F [Compound 66, (S)-8-((S)-2-fluoro-3-((S)-2-((6-oxo-5-(trifluoromethyl)-1,6-dihydropyridazin-4-yl)amino)propoxy)propionyl)-5-methyl-3-(trifluoromethyl)-7,8,9, 10-tetrahydro-5H-pyrazino[1,2-a]pyrido[3,2-e]pyrazin-6(6aH)-one] | 500 to 5000 nM | < 10 nM |  | 
7 | C[C@@H](COCCC(=O)N1CCN(c2ncc(C(F)(F)F)cn2)CC1)Nc1cn[nH]c(=O)c1C(F)(F)F [RBN-2397] |  |  | potent anti-tumor growth effect increasing in a dose-dependent manner | induces tumor-specific adaptive immune memory
8 | C[C@@H](COCCC(=O)N1CCN2c3ncc(C(F)(F)F)cc3C(=O)OC[C@@H]2C1)Nc1cn[nH]c(=O)c1C(F)(F)F [Compound 4, (S)-9-(3-((S)-2-((6-oxo-5-(trifluoromethyl)-1,6-dihydropyridazin-4-yl)amino)propoxy)propionyl)-3-(trifluoromethyl)-7,7a, 8,9,10,11-hexahydro-5H-pyrazino[2,1-c]pyrido[2,3-e][1,4]oxazin-5-one] | > 5000 nM | < 10 nM |  | 
9 | C[C@@H](COCCC(=O)N1CCN2c3ncc(F)cc3COC[C@H]2C1)Nc1cn[nH]c(=O)c1C(F)(F)F [Compound 20, (R)-9-(3-((S)-2-((6-oxo-5-(trifluoromethyl)-1,6-dihydropyridazin-4-yl)amino)propoxy)propionyl)-3-fluoro-7,7a, 8,9,10,11-hexahydro-5H-pyrazino[2,1-c]pyrido[2,3-e][1,4]oxazin-5-one] | > 5000 nM | > 500 nM |  | 
10 | C[C@@H](COCCC(=O)N1CCN2Cc3ncc(C(F)(F)F)cc3OC[C@H]2C1)Nc1cn[nH]c(=O)c1C(F)(F)F [Compound 18, 5-(((S)-1-(3-oxo-3-((R)-3-(trifluoromethyl)-6a, 7,9,10-tetrahydro-12H-pyrazino[2,1-c]pyrido[2,3-f][1,4]oxazepin-8(6H)-yl)propoxy)prop-2-yl)amino)-4-(trifluoromethyl)pyridazin-3(2H)-one] | > 5000 nM | 10 to 100 nM |  | 
11 | C[C@@H](COCCC(=O)N1CCN2c3ncc(C(F)(F)F)cc3CN(C)C[C@H]2C1)Nc1cn[nH]c(=O)c1C(F)(F)F [Compound 23, 5-(((S)-1-(3-((S)-6-methyl-3-(trifluoromethyl)-6,7,7a, 8,10,11-octahydropyrazino[1,2-a]pyrido[3,2-f][1,4]Diazepin-9(5H)-yl)-3-propoxy)prop-2-yl)amino)-4-(trifluoromethyl) pyridazin-3(2H)-one] | 100 to 500 nM | < 10 nM |  | 
12 | C[C@@H](COCCC(=O)N1CCN2c3ncc(C(F)(F)F)nc3OC[C@@H]2C1)Nc1cn[nH]c(=O)c1C(F)(F)F [Compound 34, 5-(((S)-1-(3-oxo-3-((S)-3-(trifluoromethyl)-6a, 7,9,10-tetrahydrobipyrazino[2,3-b: 1′,2′-d][1,4]oxazin-8(6H)-yl)propoxy)prop-2-yl)amino)-4-(trifluoromethyl)pyridazin-3(2H)-one] | 500 to 5000 nM | < 10 nM |  | 
13 | C[C@@H](COCCC(=O)N1CCN2c3ncc(C(F)(F)F)cc3OC[C@H]2C1)Nc1cn[nH]c(=O)c1C(F)(F)F [Compound 1, 5-(((S)-1-(3-oxo-3-((R)-3-(trifluoromethyl)-6a, 7,9,10-tetrahydropyrazino[1,2-d]pyrido[3,2-b][1,4]oxazin-8(6H)-yl)propoxy)prop-2-yl)amino)-4-(trifluoromethyl)pyridazin-3(2H)-one] | < 100 nM | < 10 nM |  | 
14 | C[C@@H](COCCC(=O)N1CCN2c3ncc(C(F)(F)F)nc3OC[C@H]2C1)Nc1cn[nH]c(=O)c1C(F)(F)F [Compound 14] | 100 to 500 nM | < 10 nM |  | 

Second part, led by results:

Row | IC50 (NCI-H1373 cells) | IC50 (PARP7) | SMILES | anti-tumor growth effect (tumor) | tumor-specific adaptive immune memory (tumor)
15 | 500 to 5000 nM | < 10 nM | C[C@@H](COCCC(=O)N1CCN2c3ncc(C(F)(F)F)cc3CS(=O)(=O)C[C@H]2C1)Nc1cn[nH]c(=O)c1C(F)(F)F [Compound 22] |  | 
16 | > 5000 nM | < 10 nM | C[C@@H](COCCC(=O)N1CCN2c3ncc(C(F)(F)F)cc3NC(=O)CC2C1)Nc1cn[nH]c(=O)c1C(F)(F)F (single isomer, unassigned) [Compound 84] |  | 
17 | 100 to 500 nM | < 10 nM | C[C@@H](COCCC(=O)N1CCN2c3ncc(C(F)(F)F)cc3C(=O)CC2C1)Nc1cn[nH]c(=O)c1C(F)(F)F (stereo partly drawn) [Compound 37, 8-(3-((S)-2-((6-oxo-5-(trifluoromethyl)-1,6-dihydropyridazin-4-yl)amino)propoxy)propionyl)-3-(trifluoromethyl)-6,6a, 7,8,9,10-hexahydro-5H-pyrazino[1,2-a][1,8]naphthyridin-5-one] |  | 
18 | 500 to 5000 nM | < 10 nM | C[C@@H](COCCC(=O)N1CCN2c3ncc(C(F)(F)F)cc3CNC(=O)[C@H]2C1)Nc1cn[nH]c(=O)c1C(F)(F)F [Compound 79, (R)-9-(3-((S)-2-((6-oxo-5-(trifluoromethyl)-1,6-dihydropyridazin-4-yl)amino)propoxy)propionyl)-3-(trifluoromethyl)-5,6,8,9, 10, 11-hexahydropyrazino[1,2-a]pyrido[3,2-f][1, 4]diazepin-7(7aH)-one] |  | 
19 | 500 to 5000 nM | < 10 nM | C[C@H](COCCC(=O)N1CCN2c3ncc(C(F)(F)F)cc3NCC[C@H]2C1)Nc1cn[nH]c(=O)c1C(F)(F)F (stereo in doubt) [Compound 36, 5-(((R)-1-(3-oxo-3-((S)-3-(trifluoromethyl)-6,7,7a, 8,10,11-hexahydropyrazino[1,2-d]pyrido[3,2-b][1,4]diazepine-9(5H)-yl)propoxy)prop-2-yl)amino)-4-(trifluoromethyl)pyridazin-3(2H)-one] |  | 
20 | 500 to 5000 nM | < 10 nM | C[C@@H](COCCC(=O)N1CCN2c3ncc(C(F)(F)F)cc3NC[C@H]2C1)Nc1cn[nH]c(=O)c1C(F)(F)F [Compound 9] |  | 
21 | < 100 nM | < 10 nM | C[C@@H](COCCC(=O)N1CCN2c3ncc(C(F)(F)F)cc3CCC2C1)Nc1cn[nH]c(=O)c1C(F)(F)F (stereo partly drawn) [Compound 32] |  | 
